1 compound from patent US20240139167A1, “LYSOSOME-ASSOCIATED MEMBRANE PROTEIN TARGETING COMPOUNDS AND USES THEREOF” (HADASIT MEDICAL RESEARCH SERVICES AND DEVELOPMENT LTD., priority 2021, published 2024) can be followed below.

Each structure is given as a SMILES string.

Assay [1] has as its system HC and APBD patient skin fibroblasts. Kind of assay: Seahorse ATP Rate Assay under glycogen burden. The class given is cell-based, human. As to the method: FIGS. 4A-4D include a bar graph of PAS staining for total glycogen in skin fibroblasts from different APBD patients (4A), images of PAS staining for total glycogen in APBD87 fibroblasts glucose-starved for 48 h (left), or glucose starved and then replenished for the last 24 h to induce glycogen burden (right) (4B), image acquisition was done by Nikon Eclipse Ti2 microscope using a 40×PlanFluor objective and CY3 filter; graph of image-based multiparametric phenotyping of APBD fibroblasts under 48 h glucose-starvation, or starvation and glucose replenishment as in 4B (4C), level of significance p=0.01; and bar graph of glycolytic and mitochondrial ATP production determined by Agilent's Seahorse machine and ATP rate assay kit (4D). Healthy control (HC) and APBD patient fibroblasts were untreated or treated with 10 μM Compound 1 for 48 h (chronic), or on assay for 20 min (acute). Readings were normalized to cell number as determined by Crystal Violet staining. Shown are mean and SD values based on n=6 repeats.
The RQ shift towards carbohydrate catabolism observed in vivo prompted the inventors to investigate whether carbohydrate catabolism is also up-modulated intracellularly. To that end, and especially since glycogen levels are highly versatile among fibroblasts derived from different APBD patients (FIG. 4A), the inventors first aimed at inducing a physiological glycogen overload, or glycogen burden condition, equivalent to the one found in tissues. […] Therefore, the inventors selected this glycogen burden condition to analyze catabolism at a cell level using an ATP Rate Assay (Agilent's Seahorse ATP Rate Assay). The results

Assay [2] concerns Gbe^ys/ys mice. Nature of the assay: Transmission electron microscopy of liver sections, lysosomal glycogen. The class given is in vivo. As to conditions: 9.5 month old mice. The source says:
(§1) FIGS. 6A-6E include bar graphs of autophagic flux, determined by the extent of lysosomal inhibitors-dependent increase in the ratio of lipidated to non-lipidated LC3 (LC3II/LC3I) (6A); representative TEM images of liver tissue from 9.5 month old Gbe^ys/ys mice treated with Compound 11, or 5% DMSO vehicle (6B), G: Glycogen (alpha particles) and polyglucosan (structures with variable electron densities), L: Lysosomes, M: Mitochondria; right panel: lysosomal glycogen stain was quantified by ImageJ “count particle” tool; micrograph of LAMP1 knocked down and control APBD primary skin fibroblasts treated or not with Compound 1 and lysosomal inhibitors (LI) and quantification of 3 experiments and results of Student's t-tests. *, p<0.1; **, p<0.05; ***, p<0.01 (6C); graphs of lysosomal pH changes determined in APBD primary fibroblasts transduced with lentiviruses encoding for GFP or GFP-shLAMP1 and treated or not with Compound 1 for 24 h and confocal microscope images of cells treated with Lysosensor and stained for PAS (6D); and bar graph of ATP production rate assay in LAMP1-KD and GFP (Control) cells treated for 24 h (chronic) or on assay (acute) with Compound 1 (6E).
Liver tissue was minced and fixed in a solution containing 2% paraformaldehyde, 2.5% glutaraldehyde (EM grade) in 0.1 M sodium cacodylate buffer pH 7.3 for 2 hours at RT, followed by 24 h at 4 ° C. […]

Assay [3] deals with LAMP1-KD and GFP control APBD primary fibroblasts. Nature of the assay: LAMP1 knockdown: autophagic flux, lysosomal pH (Lysosensor), PAS glycogen. The class given is cell-based, human.
Description: as §1
To determine the functional importance of the interaction between Compound 1 and LAMP1, the inventors knocked down the latter using a lentiviral vector carrying GFP tagged shRNA against LAMP1. […] Furthermore, to test whether LAMP1-KD and Compound 1 enhanced autophagic flux by improving lysosomal function, the inventors quantified lysosomal acidification using the pH ratiometric dye Lysosensor™, which quantifies pH based on the yellow/blue emission ratio. […] The inventors show by flow cytometry (FIG. 6D, upper panel) the overall cellular acidification as an increase in 375 nm-excited yellow/blue emission, and by confocal microscopy that this acidification is associated with brighter yellow fluorescence in lysosomes (FIG. 6D, middle panel).

Assay [4] deals with LAMP1-KD and control APBD fibroblasts. Kind of assay: ATP Rate Assay in LAMP1-KD and control cells. It counts as cell-based, human.
Description: as §1
To test the effect of LAMP1-KD and Compound 1 on fuel utilization, the inventors again used the ATP Rate Assay (FIGS. 4A-4D) in LAMP1-KD and control APBD fibroblasts acutely or chronically treated with Compound 1.

Assay [5] has as its system Agl^−/− mice. Nature of the assay: Blood metabolic panel in Agl^-/- mice (GSD3). It counts as in vivo. As to conditions: 6-months mice treated for 3 months. An excerpt: FIG. 18 includes a vertical bar graph showing blood metabolic panel based on n=5-6 6-months wildtype or Agl^−/− mice treated as indicated for 3 months.
[6] abbreviates: both HC and APBD fibroblasts, glycogen burden.

Regarding `COCCN(Cc1sccc1C)C(=O)c1cc(C)nc(O)c1` [Compound 1], the “augmenting glycolytic contribution to ATP production: acute on assay supplementation vs 48 h pretreatment” value in assay [1] is reported as “more effective”. For the same compound, in assay [1] (setting [6]), the “overall ATP production” value was “increased”. In addition, the “relative contribution of glycolytic ATP production at the expense of mitochondrial (OxPhos) ATP production” value in assay [1] (setting [6]) is “increased”. Besides, in assay [2], the “lysosomal glycogen in liver sections” value was “decrease in lysosomal glycogen”. Moreover, in assay [3] (24 h serum starvation), the “autophagic flux in LAMP1 knocked down cells” value was “further enhanced”. In addition, the “lysosomal pH (Lysosensor)” value in assay [3] (GFP and LAMP1-KD APBD cells, 24 h) is on record as “led to lysosomal acidification”. Further, the “reduction of cellular glycogen levels by LAMP knockdown (PAS)” value in assay [3] (GFP control and shLAMP1-GFP transduced) is on record as “slightly enhanced”. Moreover, the ATP production result in assay [4] (LAMP1-KD cells, non-starved, chronic and acute) is “significantly increased total and respiratory ATP production”; in assay [4] (LAMP1-KD cells, starved, acute), “increased both respiratory and glycolytic ATP”; in assay [4] (LAMP1-KD cells, starved, chronic) it was “only respiratory ATP production increased”; in assay [4] (control cells, non-starved) it was “only slightly influenced ATP production, and even acutely decreased it”; in assay [4] (control cells, starved, acute), “only increased respiratory ATP production”; in assay [4] (control cells, starved, chronic), “No significant effect”. The blood triglycerides result in assay [5] was “decreased”.
